In patent publication US12304899B2, “Factor XI activation inhibitors” (Merck Sharp & Dohme LLC, priority 2019, dated 2025):

Target: T1, Human coagulation factor (F)XI (Homo sapiens, UniProt P03951)
T1 construct: purchased Haematologic Technologies Inc. (FXI); Enzyme Research Laboratories (FXIIa) HCXI-150 (FXI); HFXIIa (FXIIa)
Assay: Inhibition of FXIIa mediated activation of FXI (activation of human Factor XI to XIa by human Factor α-XIIa)
Assay type: biochemical
Conditions: human FXI pre-incubated with compound 30 min at 22° C., activation by human FXIIa 60 min, z-GPR-AFC substrate fluorescence, 4 parameter logistic fit; read-out: Inhibition of FXIIa meditated activation of FXI
Experimental: Inhibition of FXIIa Mediated Activation of FXI
Activation of Human Factor XI to XIa by Human Factor α-XIIa
The assay was performed in 50 mM HEPES, 150 mM NaCl, 5 mM CaCl2, 0.1% PEG-8000, pH 7.4 buffer in black, flat-bottom, polystyrene microplates (Corning, Cat #3573). Serial dilutions (10-point, 3.333-fold) of the test compounds delivered as 10 mM DMSO stocks were prepared in the Labcyte Echo-qualified PP 384 well microplates (Labcyte, Cat #P-05525). Human coagulation factor (F)XI (Haematologic Technologies Inc., Cat #HCXI-150, concentration 46 nM, 19.5 uL) was pre-incubated with 0.5 uL of the test compounds for 30 min at 22° C. The activation was initiated by addition of 10 uL of human coagulation factor (F)XIIa (Enzyme Research Laboratories, Cat #HFXIIa, concentration 30 nM) and the reaction proceeded for 60 min at 22° C., after which it was quenched by addition of a selective inhibitor of FXIIa (Compound 54 in International Patent Publication WO2018093695) concentration 600 uM in DMSO, 1 uL). 10 min after the quench, 29 uL of z-GPR-AFC substrate (Sigma, Cat #C0980-10 MG, concentration 200 uM) was added into each well and the detection reaction proceeded for 60 min at 22° C. Fluorescence at 405/510 nm was measured in end-point mode using an Envision plate-reader (Perkin Elmer). IDBS Activity Base XE (ABase) analysis using 4 parameter logistic fit was performed to determine Minimum, Maximum, EC50, and Slope Factor for each compound.

T1 sequence (P03951 19-625): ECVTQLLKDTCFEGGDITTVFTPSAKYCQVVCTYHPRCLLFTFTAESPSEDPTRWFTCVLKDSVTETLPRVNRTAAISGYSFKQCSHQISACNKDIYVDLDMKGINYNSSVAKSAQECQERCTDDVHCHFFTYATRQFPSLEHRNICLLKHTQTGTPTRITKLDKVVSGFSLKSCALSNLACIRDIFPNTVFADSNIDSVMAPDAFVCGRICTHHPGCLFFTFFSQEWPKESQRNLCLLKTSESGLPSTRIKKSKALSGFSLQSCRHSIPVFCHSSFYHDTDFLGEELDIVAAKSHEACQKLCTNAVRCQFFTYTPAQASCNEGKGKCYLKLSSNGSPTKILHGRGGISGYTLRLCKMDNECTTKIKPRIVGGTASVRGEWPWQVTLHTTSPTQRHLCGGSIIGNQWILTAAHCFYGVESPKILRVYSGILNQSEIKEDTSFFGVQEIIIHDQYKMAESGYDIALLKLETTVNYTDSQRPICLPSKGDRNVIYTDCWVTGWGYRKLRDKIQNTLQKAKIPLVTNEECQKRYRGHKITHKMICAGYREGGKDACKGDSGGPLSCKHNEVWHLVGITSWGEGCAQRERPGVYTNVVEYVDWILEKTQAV

Compound | EC50 [nM]
Cc1c(COc2ccc3nc(C(=O)N4CCC(C#N)(c5ccccc5)CC4)cc(C(=O)N(C)C)c3c2)ccc2c1COC2=O [Example 3, 2-(4-cyano-4-phenylpiperidine-1-carbonyl)-N,N-dimethyl-6-((4-methyl-1-oxo-1,3-dihydroisobenzofuran-5-yl)methoxy)quinoline-4-carboxamide] | 39.6
O=C1OCc2ccc(COc3ccc4nc(C(=O)N5CCC(n6cccn6)CC5)cc(C(=O)N5CCCCC5)c4c3)cc21 [Example 20, 6-(((2-(4-(1H-pyrazol-1-yl)-piperidine-1-carbonyl)-4-(piperidine-1-carbonyl)-quinolin-6-yl)oxy)methyl)-isobenzofuran-1(3H)-one] | 35.8
COc1cccc(COc2ccc3nc(C(=O)N4CCC(C#N)(c5ccccc5)CC4)cc(C(=O)N4CCCCC4)c3c2)c1 [Example 41, 1-(6-((3-methoxybenzyl)oxy)-4-(piperidine-1-carbonyl)quin-oline-2-carbonyl)-4-phenyl-piperidine-4-carbonitrile] | 30.5
CC1(O)CCN(C(=O)c2cc(C(=O)N3CCCCC3)c3cc(OCc4ccc5c(c4Cl)COC5=O)ccc3n2)C1 (racemic) [Example 4, rac-4-chloro-5-(((2-(3-hydroxy-3-methylpyrrolidine-1-carbonyl)-4-(piperidine-1-carbonyl)quinolin-6-yl)oxy)methyl)isobenzofuran-1(3H)-one] | 9.6
Cc1c(COc2ccc3nc(C(=O)N4CCC(C#N)(n5cccn5)CC4)cc(C(=O)N4CCCCC4)c3c2)ccc2c1COC2=O [Example 1, 1-(6-((4-methyl-1-oxo-1,3-dihydroisobenzofuran-5-yl)methoxy)-4-(piperidine-1-carbonyl)quinoline-2-carbonyl)-4-(1H-pyrazol-1-yl)piperidine-4-carbonitrile] | 21.8
N#CC1(n2cccn2)CCN(C(=O)c2cc(C(=O)N3CCCCC3)c3cc(OCc4ncc(C(F)(F)F)cc4Cl)ccc3n2)CC1 [Example 2, 1-(6-((3-chloro-5-(trifluoro-methyl)pyridin-2-yl)meth-oxy)-4-(piperidine-1-carbon-yl)quinoline-2-carbonyl)-4-(1H-pyrazol-1-yl)piperidine-4-carbonitrile] | 32.2
C[C@]1(O)CCN(C(=O)c2cc(C(=O)N3CCCCC3)c3cc(OCc4nc5ccccc5s4)ccc3n2)C1 [Example 61, (S)(6-(benzo[d]thiazol-2-ylmethoxy)-2-(3-hydroxy-3-methylpyrrolidine-1-carbonyl)quinolin-4-yl)-(piperidin-1-yl)methanone] | 131
Cn1nnc2cc(COc3ccc4nc(C(=O)N5CCC(n6cccn6)CC5)cc(C(=O)N5CCCCC5)c4c3)ccc21 [Example 15, (4-(1H-pyrazol-1-yl)piperidin-1-yl)(6-((1-methyl-1H-benzo-[d][1,2,3]triazol-5-yl)methoxy)-4-(piperidine-1-carbonyl)-quinolin-2-yl)methanone] | 23.7
CN(C(=O)c1cc(C(=O)N2CCC(n3cccn3)CC2)nc2ccc(OCc3nc4ccccc4s3)cc12)C1CCC1 [Example 55, 2-(4-(1H-pyrazol-1-yl)piperi-dine-1-carbonyl)-6-(benzo[d]-thiazol-2-ylmethoxy)-N-cyclo-butyl-N-methylquinoline-4-carboxamide] | 366
Cc1c(COc2ccc3nc(C(=O)N4CCC(C)(O)C4)cc(C(=O)N4CCCCC4)c3c2)ccc2c1COC2=O (single isomer, unassigned) [Example 5b, 5-(((2-(3-hydroxy-3-methylpyrrolidine-1-carbonyl)-4-(piperidine-1-carbonyl)quinolin-6-yl)oxy)methyl)-4-methylisobenzofuran-1(3H)-one] | 38.8
O=C(c1cc(C(=O)N2CCCCC2)c2cc(OCc3ncc(C(F)(F)F)cc3Cl)ccc2n1)N1CCC(n2cccn2)CC1 [Example 12, (4-(1H-pyrazol-1-yl)piperidin-1-yl)(6-((3-chloro-5-(trifluoro-methyl)pyridin-2-yl)methoxy)-4-(piperidine-1-carbonyl)-quinolin-2-yl)methanone] | 16.8
N#CC1(c2ccccc2)CCN(C(=O)c2cc(C(=O)N3CCCCC3)c3cc(OCc4ccc(C(F)(F)F)cc4)ccc3n2)CC1 [Example 38, 4-phenyl-1-(4-(piperidine-1-carbonyl)-6-((4-(trifluoro-methyl)benzyl)oxy)quin-oline-2-carbonyl)piperidine-4-carbonitrile] | 49.5
Cc1c(COc2ccc3nc(C(=O)N4CCC(C)(O)C4)cc(C(=O)N4CCCCC4)c3c2)ccc2c1COC2=O (single isomer, unassigned) [Example 5a, 5-(((2-(3-hydroxy-3-methylpyrrolidine-1-carbonyl)-4-(piperidine-1-carbonyl)quinolin-6-yl)oxy)methyl)-4-methylisobenzofuran-1(3H)-one] | 31.8
O=C(c1cc(C(=O)N2CCCCC2)c2cc(OCc3nc4ccccc4s3)ccc2n1)N1CCC(n2cccn2)CC1 [Example 26, (4-(1H-pyrazol-1-yl)piperidin-1-yl)(6-(benzo[d]thiazol-2-ylmethoxy)-4-(piperidine-1-carbonyl)quinolin-2-yl) methanone] | 28.9
N#CC1(c2ccccc2)CCN(C(=O)c2cc(C(=O)N3CCCCC3)c3cc(OCc4cn5ccccc5n4)ccc3n2)CC1 [Example 47, 1-(6-(imidazo[1,2-a]pyridin-2-ylmethoxy)-4-(piperidine-1-carbonyl)quinoline-2-carbonyl)-4-phenylpiperi-dine-4-carbonitrile] | 13.8
N#CC1(c2ccccc2)CCN(C(=O)c2cc(C(=O)N3CCCCC3)c3cc(OCc4ccc(-c5nnco5)cc4)ccc3n2)CC1 [Example 34, 1-(6-((4-(1,3,4-oxadiazol-2-yl)benzyl)oxy)-4-(piperidine-1-carbonyl)quinoline-2-car-bonyl)-4-phenylpiperidine-4-carbonitrile] | 41.4
N#Cc1ccc(COc2ccc3nc(C(=O)N4CCC(n5cccn5)CC4)cc(C(=O)N4CCCCC4)c3c2)cc1F [Example 13, 4-(((2-(4-(1H-pyrazol-1-yl)-piperidine-1-carbonyl)-4-(piperidine-1-carbonyl)-quinolin-6-yl)oxy)methyl)-2-fluorobenzonitrile] | 20
O=C(c1cc(C(=O)N2CCCCC2)c2cc(OCc3nc4ccccc4s3)ccc2n1)N1CCC(c2ncc[nH]2)CC1 [Example 74, (4-(1H-imidazol-2-yl)-piperidin-1-yl)(6-(benzo-[d]thiazol-2-ylmethoxy)-4-(piperidine-carbonyl)-quinolin-2-yl)methanone] | 32.6
Cn1c(COc2ccc3nc(C(=O)N4CCC(C#N)(c5ccccc5)CC4)cc(C(=O)N4CCCCC4)c3c2)nc2ccccc21 [Example 50, 1-(6-((1-methyl-1H-benzo[d]-imidazol-2-yl)methoxy)-4-(piperidine-1-carbonyl)quin-oline-2-carbonyl)-4-phenyl-piperidine-4-carbonitrile] | 33.1
O=C(c1cc(C(=O)N2CCC(F)CC2)c2cc(OCc3nc4ccccc4s3)ccc2n1)N1CCC(n2cccn2)CC1 [Example 52, (4-(1H-pyrazol-1-yl)piperidin-1-yl)(6-(benzo[d]thiazol-2-ylmethoxy)-4-(4-fluoropiperidine-1-carbonyl)quinolin-2-yl)methanone] | 28.3
